What all share (assay): FLIPR calcium assay, cells with promiscuous G protein transfected with bitter receptor cDNA
Common to all, as to type: cell-based
Conditions in all cases: responsive if cellular response of >10% over baseline, Fluo4-AM

For assay [1], the target named is T1, T2R receptor SEQ ID NO: 2 (S2) (Homo sapiens, UniProt Q9NYW2).
T1 construct: expressed in transfected cells; host or cells: cells expressing a promiscuous G protein (e.g., G16g44)
T1 sequence (Q9NYW2 1-309): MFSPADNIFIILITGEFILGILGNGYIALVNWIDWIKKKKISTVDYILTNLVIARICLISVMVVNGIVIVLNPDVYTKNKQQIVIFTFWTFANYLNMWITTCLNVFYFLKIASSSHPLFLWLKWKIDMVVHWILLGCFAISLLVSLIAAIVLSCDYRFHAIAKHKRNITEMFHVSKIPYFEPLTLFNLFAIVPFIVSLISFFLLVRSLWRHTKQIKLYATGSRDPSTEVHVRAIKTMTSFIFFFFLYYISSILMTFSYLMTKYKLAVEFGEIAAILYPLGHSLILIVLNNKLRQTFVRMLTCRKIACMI
An outline of the steps: (§1)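 Fluo4-AM calcium imaging on FLIPR, agonist added during recording. Host: G16g44 cells, one receptor cDNA per transfection, 28 h culture. Activity cutoff >10% over baseline.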

In assay [2] the target is T2, T2R receptor SEQ ID NO: 6 (S6) (Homo sapiens, UniProt P59540).
T2 construct: expressed in transfected cells; host or cells: cells expressing a promiscuous G protein (e.g., G16g44)
T2 sequence (P59540 1-309): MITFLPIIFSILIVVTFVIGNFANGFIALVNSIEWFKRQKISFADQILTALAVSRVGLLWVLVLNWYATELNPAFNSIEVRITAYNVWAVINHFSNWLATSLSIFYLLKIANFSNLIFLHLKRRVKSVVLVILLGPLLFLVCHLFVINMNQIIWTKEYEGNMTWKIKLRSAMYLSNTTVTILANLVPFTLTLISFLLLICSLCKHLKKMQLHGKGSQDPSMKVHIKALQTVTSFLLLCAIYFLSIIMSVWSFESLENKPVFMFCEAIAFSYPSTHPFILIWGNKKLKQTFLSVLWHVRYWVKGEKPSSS
In outline: as §1

The target of assay [3] is T3, T2R receptor SEQ ID NO: 1 (S1) (Homo sapiens, UniProt Q9NYW7).
T3 construct: expressed in transfected cells; host or cells: cells expressing a promiscuous G protein (e.g., G16g44)
T3 sequence (Q9NYW7 1-299): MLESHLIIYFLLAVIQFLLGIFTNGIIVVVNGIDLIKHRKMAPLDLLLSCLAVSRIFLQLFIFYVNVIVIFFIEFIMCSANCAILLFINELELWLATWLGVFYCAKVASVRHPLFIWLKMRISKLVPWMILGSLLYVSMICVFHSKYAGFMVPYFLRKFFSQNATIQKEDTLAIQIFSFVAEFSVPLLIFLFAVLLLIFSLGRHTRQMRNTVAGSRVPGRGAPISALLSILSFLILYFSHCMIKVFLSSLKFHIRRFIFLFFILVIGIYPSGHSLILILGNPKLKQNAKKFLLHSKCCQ
An outline of the steps:
as §1

For assay [4], the target named is T4, T2R receptor SEQ ID NO: 5 (S5) (Homo sapiens, UniProt P59534).
T4 construct: expressed in transfected cells; host or cells: cells expressing a promiscuous G protein (e.g., G16g44)
T4 sequence (P59534 18-338): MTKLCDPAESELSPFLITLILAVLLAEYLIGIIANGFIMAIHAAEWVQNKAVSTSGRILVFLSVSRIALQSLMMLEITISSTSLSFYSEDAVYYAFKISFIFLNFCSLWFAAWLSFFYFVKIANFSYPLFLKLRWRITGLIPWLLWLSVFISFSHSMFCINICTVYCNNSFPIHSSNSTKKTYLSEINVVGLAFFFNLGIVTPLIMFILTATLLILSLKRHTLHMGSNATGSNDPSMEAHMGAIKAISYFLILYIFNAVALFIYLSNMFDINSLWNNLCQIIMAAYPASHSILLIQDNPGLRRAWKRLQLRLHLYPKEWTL
In outline: as §1

Assay [5] concerns the target T5, T2R receptor SEQ ID NO: 4 (S4) (Homo sapiens, UniProt Q9NYV8).
T5 construct: expressed in transfected cells; host or cells: cells expressing a promiscuous G protein (e.g., G16g44)
T5 sequence (Q9NYV8 1-317): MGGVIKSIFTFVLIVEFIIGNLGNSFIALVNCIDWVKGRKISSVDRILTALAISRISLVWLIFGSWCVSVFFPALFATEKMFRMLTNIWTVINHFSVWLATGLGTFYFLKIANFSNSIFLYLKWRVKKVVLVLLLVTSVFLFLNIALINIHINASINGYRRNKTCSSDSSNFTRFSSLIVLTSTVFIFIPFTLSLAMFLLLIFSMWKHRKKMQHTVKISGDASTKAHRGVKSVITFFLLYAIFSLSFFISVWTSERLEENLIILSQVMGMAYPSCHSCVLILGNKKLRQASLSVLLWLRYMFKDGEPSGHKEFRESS
In outline:
as §1

The target in assay [6] is T6, T2R receptor SEQ ID NO: 3 (S3) (Homo sapiens, UniProt Q9NYW0, T156M).
T6 construct: expressed in transfected cells; host or cells: cells expressing a promiscuous G protein (e.g., G16g44)
T6 sequence (Q9NYW0 1-307 T156M): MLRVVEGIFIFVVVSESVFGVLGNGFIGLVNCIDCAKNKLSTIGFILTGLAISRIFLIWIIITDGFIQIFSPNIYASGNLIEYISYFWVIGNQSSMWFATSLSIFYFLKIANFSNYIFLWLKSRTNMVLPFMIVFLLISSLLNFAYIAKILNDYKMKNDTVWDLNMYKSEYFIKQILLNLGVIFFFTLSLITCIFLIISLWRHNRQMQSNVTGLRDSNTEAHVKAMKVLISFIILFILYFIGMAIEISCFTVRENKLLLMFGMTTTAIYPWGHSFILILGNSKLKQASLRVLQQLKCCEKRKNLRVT
An outline of the steps:
as §1

Structures are written as SMILES.

With `CCOC(=O)[C@H](CCc1ccccc1)N[C@@H](C)C(=O)N1CCC[C@H]1C(=O)O` [Enalapril], the “S2 positive response of T2R receptor to API” value (shortened to “S2 positive response”) in assay [1] was “+ (a “+” to indicate whether a particular T2R receptor showed a positive response to a particular API)”. The “S6 positive response of T2R receptor to API” value (“S6 positive response” below) in assay [2] is given as “+ (a “+” to indicate whether a particular T2R receptor showed a positive response to a particular API)”. Besides, in assay [3], the “S1 positive response of T2R receptor to API” value (from here on “S1 positive response”) is on record as “+ (a “+” to indicate whether a particular T2R receptor showed a positive response to a particular API)”. In addition, in assay [4], the “S5 positive response of T2R receptor to API” value (shortened to “S5 positive response”) is on record as “+ (a “+” to indicate whether a particular T2R receptor showed a positive response to a particular API)”. Further, in assay [5], the “S4 positive response of T2R receptor to API” value (“S4 positive response” below) was “+ (a “+” to indicate whether a particular T2R receptor showed a positive response to a particular API)”.
In the case of `CN(C)CCOC(C)(c1ccccc1)c1ccccn1` (stereo not drawn) [Doxylamine], the “S2 positive response” value in assay [1] is “+ (a “+” to indicate whether a particular T2R receptor showed a positive response to a particular API)”. Further, the “S6 positive response” value in assay [2] is recorded as “+ (a “+” to indicate whether a particular T2R receptor showed a positive response to a particular API)”. In addition, in assay [3], the “S1 positive response” value is given as “+ (a “+” to indicate whether a particular T2R receptor showed a positive response to a particular API)”. For the same compound, the “S3 positive response of T2R receptor to API” value (from here on “S3 positive response”) in assay [6] was “+ (a “+” to indicate whether a particular T2R receptor showed a positive response to a particular API)”. Besides, in assay [4], the “S5 positive response” value is “+ (a “+” to indicate whether a particular T2R receptor showed a positive response to a particular API)”. In assay [5], the “S4 positive response” value was “+ (a “+” to indicate whether a particular T2R receptor showed a positive response to a particular API)”.
`O=C(N[C@H](CO)[C@H](O)c1ccc([N+](=O)[O-])cc1)C(Cl)Cl` [Chloramphenicol]: the “S2 positive response” value in assay [1] is given as “+ (a “+” to indicate whether a particular T2R receptor showed a positive response to a particular API)”. The “S6 positive response” value in assay [2] is on record as “+ (a “+” to indicate whether a particular T2R receptor showed a positive response to a particular API)”. In addition, the “S1 positive response” value in assay [3] was “+ (a “+” to indicate whether a particular T2R receptor showed a positive response to a particular API)”. For the same compound, in assay [6], the “S3 positive response” value was “+ (a “+” to indicate whether a particular T2R receptor showed a positive response to a particular API)”. Moreover, the “S5 positive response” value in assay [4] is “+ (a “+” to indicate whether a particular T2R receptor showed a positive response to a particular API)”.
As to `NC(N)=Nc1nc(CSCCC(N)=NS(N)(=O)=O)cs1` [Famotidine], in assay [1], the “S2 positive response” value was “+ (a “+” to indicate whether a particular T2R receptor showed a positive response to a particular API)”. The “S6 positive response” value in assay [2] was “+ (a “+” to indicate whether a particular T2R receptor showed a positive response to a particular API)”. For the same compound, the “S1 positive response” value in assay [3] is on record as “+ (a “+” to indicate whether a particular T2R receptor showed a positive response to a particular API)”. In addition, in assay [6], the “S3 positive response” value is “+ (a “+” to indicate whether a particular T2R receptor showed a positive response to a particular API)”. The “S5 positive response” value in assay [4] was “+ (a “+” to indicate whether a particular T2R receptor showed a positive response to a particular API)”.
In the case of `COc1ccccc1OCC(O)CO` (stereo not drawn) [Guaifenesin], the “S2 positive response” value in assay [1] is given as “+ (a “+” to indicate whether a particular T2R receptor showed a positive response to a particular API)”. Also, in assay [3], the “S1 positive response” value is reported as “+ (a “+” to indicate whether a particular T2R receptor showed a positive response to a particular API)”. Moreover, the “S3 positive response” value in assay [6] is listed as “+ (a “+” to indicate whether a particular T2R receptor showed a positive response to a particular API)”. In assay [4], the “S5 positive response” value is given as “+ (a “+” to indicate whether a particular T2R receptor showed a positive response to a particular API)”. Further, the “S4 positive response” value in assay [5] is given as “+ (a “+” to indicate whether a particular T2R receptor showed a positive response to a particular API)”.
As for `CC[N+](C)(CC)CCOC(=O)C(O)(c1ccccc1)C1CCCCC1` (stereo not drawn) [Oxyphenonium], the “S2 positive response” value in assay [1] was “+ (a “+” to indicate whether a particular T2R receptor showed a positive response to a particular API)”. For the same compound, the “S6 positive response” value in assay [2] is on record as “+ (a “+” to indicate whether a particular T2R receptor showed a positive response to a particular API)”. In assay [3], the “S1 positive response” value was “+ (a “+” to indicate whether a particular T2R receptor showed a positive response to a particular API)”. Moreover, in assay [6], the “S3 positive response” value is on record as “+ (a “+” to indicate whether a particular T2R receptor showed a positive response to a particular API)”. Moreover, in assay [4], the “S5 positive response” value is given as “+ (a “+” to indicate whether a particular T2R receptor showed a positive response to a particular API)”.
`CCC[C@@H]1C[C@@H](C(=O)N[C@@H]([C@H]2O[C@H](SC)[C@H](O)[C@@H](O)[C@H]2O)[C@H](C)Cl)N(C)C1` [Clinamycin]: the “S2 positive response” value in assay [1] is listed as “+ (a “+” to indicate whether a particular T2R receptor showed a positive response to a particular API)”. Further, the “S3 positive response” value in assay [6] is listed as “+ (a “+” to indicate whether a particular T2R receptor showed a positive response to a particular API)”. Also, the “S5 positive response” value in assay [4] is “+ (a “+” to indicate whether a particular T2R receptor showed a positive response to a particular API)”. Further, in assay [5], the “S4 positive response” value was “+ (a “+” to indicate whether a particular T2R receptor showed a positive response to a particular API)”.
Turning to `CN1[C@@H]2CC[C@H]1C[C@@H](OC(=O)C(CO)c1ccccc1)C2` (stereo partly drawn) [Atropine], in assay [1], the “S2 positive response” value was “+ (a “+” to indicate whether a particular T2R receptor showed a positive response to a particular API)”. The “S6 positive response” value in assay [2] is given as “+ (a “+” to indicate whether a particular T2R receptor showed a positive response to a particular API)”. Also, the “S3 positive response” value in assay [6] is “+ (a “+” to indicate whether a particular T2R receptor showed a positive response to a particular API)”. The “S5 positive response” value in assay [4] is “+ (a “+” to indicate whether a particular T2R receptor showed a positive response to a particular API)”.

(Values after US20250271426A1, “REDUCTION OF BITTER TASTE OF ACTIVE PHARMACEUTICAL INGREDIENTS AND RELATED ASSAYS AND SCREENING METHODS” (Firmenich Incorporated, priority 2022, published 2025).)
